Measured values from patent US20050158391A1, “Azithromycin multiparticulate dosage forms by melt-congeal processes” (Pfizer Inc, priority 2003, published 2005).
Read-outs that look alike come from different tables or passages of the source.

Tests used:
[1] = Solubility of azithromycin dihydrate in molten excipient; assay type: physicochemical; settings: 65° C.
Method: The solubility of azithromycin dihydrate in beeswax was measured using the following procedure. A 5 g sample of beeswax was placed in a glass vial and melted at 65° C. by placing the vial in a hot-water bath. Crystals of azithromycin dihydrate were then slowly added to the molten wax, with stirring. The crystals first added dissolved into the wax. […] Thus, the solubility of azithromycin dihydrate in beeswax was determined to be about 6 wt %.
Using the procedure outlined in Screening Example 29, the solubility of azithromycin dihydrate in the excipients listed in Table 8 was determined at the temperatures listed therein. In addition, the solubility of azithromycin dihydrate was determined for mixtures of carriers in the weight ratios reported in Table 8.

[2] = cited from earlier work
[3] = Degree of acid/ester substitution [A] from Saponification Number; assay type: physicochemical; settings: for [A] degree of acid/ester substitution: Saponification Number (Pharmaceutical Excipients 2000) divided by 56.11
Source text: However, in most cases, the excipient candidate is not available in pure form, and may constitute a mixture of several primary molecular types as well as small amounts of impurities or degradation products that could be acids or esters. In addition, many excipient candidates are natural products or are derived from natural products that may contain a wide range of compounds, making the above calculations extremely difficult, if not impossible. […] The Saponification Number is the number of milligrams of potassium hydroxide required to neutralize or hydrolyze any acid or ester substituents present in 1 gram of the material. Measurement of the Saponification Number is a standard way to characterize many commercially available pharmaceutical excipients and the manufacturer often provides an excipient's Saponification Number. The Saponification Number will not only account for acid and ester substituents present on the excipient itself, but also for any such substituents present due to impurities or degradation products in the excipient. Thus, the Saponification Number will often provide a more accurate measure of the degree of acid/ester substitution in the excipient.
The degree of acid and ester substitution on a excipient can be calculated from the Saponification Number as follows. Dividing the Saponification Number by the molecular weight of potassium hydroxide, 56.11 g/mol, results in the number of millimoles of potassium hydroxide required to neutralize or hydrolyze any acid or ester substituents present in one gram of the excipient. Since one mole of potassium hydroxide will neutralize one equivalent of acid or ester substituents, dividing the Saponification Number by the molecular weight of potassium hydroxide also results in the number of meq of acid or ester substituents present in one gram of excipient.
For example, glyceryl monostearate can be obtained with a Saponification Number of 165, as specified by the manufacturer. Thus, the degree of acid/ester substitution per gram of glyceryl monostearate or its acid/ester concentration is 165÷56.11=2.9 meq/g excipient. Using the above example of a composition with 30 wt % azithromycin and 70 wt % glyceryl monostearate, the theoretical concentration of esters formed per gram of azithromycin if all of the azithromycin reacted would be 2.9 meq/g×70/30=6.8 meq/g.
This example illustrates how the degree of acid/ester substitution can be determined from the Saponification Number for an excipient. The degree of acid/ester substitution [A] for the excipients listed in Table 5 was determined by dividing by 56.11 the Saponification Number for the carrier as listed in Pharmaceutical Excipients 2000.
This example illustrates how the degree of acid/ester substitution can be determined from the Saponification Number for an excipient. The degree of acid/ester substitution for the excipients listed in Table 6 were determined by dividing by 56.11 the Saponification Number provided by the manufacturer.

[4] = as listed in Pharmaceutical Excipients 2000

Compound | solubility of azithromycin dihydrate in beeswax [1] | [A] degree of acid/ester substitution [3] | degree of acid/ester substitution (acid/ester concentration) ([3]; 165÷56.11) | Saponification Number [2, 4] | Saponification Number ([2]; as specified by the manufacturer (description example))
CCCCCCCC/C=C\CCCCCCCC(=O)OCC(O)CO (stereo not drawn) [glyceryl monooleate] |  | 2.9-3.0 meq/g carrier |  | 160-170 | 
CCCCCCCCCCCCCCCCCC(=O)O [stearic acid, octadecanoic acid] |  | 3.6-3.9 meq/g carrier |  | 200-220 | 
sorbitan monostearate |  | 2.6-2.8 meq/g carrier |  | 147-157 | 

The next lines start with results.

solubility of azithromycin dihydrate in beeswax [1] | [A] degree of acid/ester substitution [3] | degree of acid/ester substitution (acid/ester concentration) ([3]; 165÷56.11) | Compound | Saponification Number [2, 4] | Saponification Number ([2]; as specified by the manufacturer (description example))
about 6 wt % |  |  | CC[C@H]1OC(=O)[C@H](C)[C@@H](O[C@H]2C[C@@](C)(OC)[C@@H](O)[C@H](C)O2)[C@H](C)[C@@H](O[C@@H]2O[C@H](C)C[C@H](N(C)C)[C@H]2O)[C@](C)(O)C[C@@H](C)CN(C)[C@H](C)[C@@H](O)[C@]1(C)O [azithromycin dihydrate, 9a-aza-9a-methyl-9-deoxo-9a-homoerythromycin A] |  | 
 | <0.04 meq/g carrier |  | CCCCCCCCCCCCCCCCO [cetyl alcohol] | <2 | 
 | 2.8-2.9 meq/g carrier | 2.9 meq/g excipient | CCCCCCCCCCCCCCCCCC(=O)OCC(O)CO (stereo not drawn) [glyceryl monostearate] | 155-165 | 165
 | <0.04 meq/g carrier |  | CCCCCCCCCCCCCCCCCCO [stearyl alcohol, 1-octadecanol] | <2 | 
